Data reported in PubChem BioAssay AID651817 (Broad Institute, 2012).
Calls of active or inactive are those of the source.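 How the source made its calls: active means compound whose fitted luminescence drop, meaning cytotoxicity, reaches half effect at most twice its top valid tested dose; inconclusive means flat curve with a moderate drop, or an unreliable fit; inactive means rise instead of drop, flat response, or weaker potency.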

Test: NIH/3T3 fibroblast cytotoxicity, dose response, cytotoxicity control for T. cruzi growth inhibitor project, cell-based, cherry-pick samples, set 2 (AID 651817)
Details: NIH/3T3 viability, ATP luminescence (CellTiter-Glo), 90 h; at 3.8 µM (top of the series)

Structure (SMILES) | activity change, negative = cytotoxicity
C[C@H]1CN([C@@H](C)CO)C(=O)c2cccc(NC(=O)c3nc4ccccc4s3)c2O[C@@H]1CN(C)S(=O)(=O)c1ccccc1 | 28.8% (inactive)

Same assay, conditions: NIH/3T3 viability, ATP luminescence (CellTiter-Glo), 90 h; at 19.5 µM (top of the series)

Structure (SMILES) | activity change, negative = cytotoxicity
C[C@@H]1CN([C@@H](C)CO)C(=O)c2cccc(NC(=O)c3ccncc3)c2O[C@@H]1CN(C)CC1CCCCC1 | 15.4% (inactive)
C[C@@H]1CN([C@@H](C)CO)C(=O)c2cccc(NC(=O)c3nc4ccccc4s3)c2O[C@@H]1CN(C)S(=O)(=O)c1ccccc1 | -7.14% (inactive)
C[C@H]1CN([C@@H](C)CO)C(=O)c2cccc(NC(=O)c3ccncc3)c2O[C@H]1CN(C)Cc1ccc(C(F)(F)F)cc1 | -30.7% (inactive)
C[C@@H]1CN([C@@H](C)CO)C(=O)c2cccc(NC(=O)c3ccncc3)c2O[C@H]1CN(C)CC1CCCCC1 | -8.6% (inactive)
C[C@H]1CN([C@@H](C)CO)C(=O)c2cccc(NC(=O)c3ccncc3)c2O[C@H]1CN(C)Cc1ccc(-c2ccccc2)cc1 | 18.2% (inactive)
COc1ccc(CN(C)C[C@H]2Oc3c(NC(=O)c4ccncc4)cccc3C(=O)N([C@H](C)CO)C[C@@H]2C)cc1 | 23.4% (inactive)
C[C@@H]1CN([C@@H](C)CO)C(=O)Cc2cc(NS(=O)(=O)c3ccc(Cl)cc3)ccc2O[C@@H]1CN(C)S(=O)(=O)c1ccc(Cl)cc1 | -14.1% (inactive)
C[C@@H]1CN([C@H](C)CO)C(=O)c2cccc(NC(=O)c3ccncc3)c2O[C@@H]1CN(C)Cc1ccc(Cl)c(Cl)c1 | -9.65% (inactive)
C[C@H](CO)N1C[C@H](C)[C@@H](CN(C)Cc2ccc(C(F)(F)F)cc2)Oc2c(NC(=O)c3ccncc3)cccc2C1=O | -10.8% (inactive)
C[C@@H]1CN([C@H](C)CO)C(=O)Cc2cc(NS(=O)(=O)c3ccccc3)ccc2O[C@@H]1CN(C)S(=O)(=O)c1ccc(Cl)cc1 | -10.7% (inactive)
C[C@H](CO)N1C[C@H](C)[C@@H](CN(C)S(=O)(=O)c2ccc(F)cc2)Oc2c(NC(=O)NC3CCCCC3)cccc2C1=O | 5.78% (inactive)
C[C@@H]1CN([C@H](C)CO)C(=O)c2cccc(NC(=O)c3ccncc3)c2O[C@@H]1CN(C)Cc1ccc(-c2ccccc2)cc1 | 6.2% (inactive)
Cc1ccc(S(=O)(=O)Nc2ccc3c(c2)CC(=O)N([C@H](C)CO)C[C@@H](C)[C@H](CN(C)S(=O)(=O)c2ccc(Cl)cc2)O3)cc1 | -23.3% (inactive)
C[C@H]1CN([C@@H](C)CO)C(=O)c2cccc(NC(=O)c3ccncc3)c2O[C@@H]1CN(C)Cc1ccc(Cl)c(Cl)c1 | -25.7% (inactive)
Cc1ccc(S(=O)(=O)N(C)C[C@@H]2Oc3ccc(NS(=O)(=O)c4ccccc4)cc3CC(=O)N([C@@H](C)CO)C[C@H]2C)cc1 | -8.95% (inactive)
C[C@H]1CN([C@@H](C)CO)C(=O)c2cccc(NC(=O)NC3CCCCC3)c2O[C@@H]1CN(C)S(=O)(=O)c1ccc(F)cc1 | 3.7% (inactive)
Cc1ccc(S(=O)(=O)Nc2ccc3c(c2)CC(=O)N([C@H](C)CO)C[C@H](C)[C@@H](CN(C)S(=O)(=O)c2ccc(Cl)cc2)O3)cc1 | -14.6% (inactive)
Cc1ccc(S(=O)(=O)Nc2ccc3c(c2)CC(=O)N([C@@H](C)CO)C[C@H](C)[C@H](CN(C)S(=O)(=O)c2ccc(Cl)cc2)O3)cc1 | -3.56% (inactive)
C[C@H](CO)N1C[C@H](C)[C@H](CN(C)Cc2ccc(-c3ccccc3)cc2)Oc2c(NC(=O)c3ccncc3)cccc2C1=O | 4.37% (inactive)
Cc1ccc(S(=O)(=O)N(C)C[C@@H]2Oc3ccc(NS(=O)(=O)c4ccccc4)cc3CC(=O)N([C@@H](C)CO)C[C@@H]2C)cc1 | 9.31% (inactive)
C[C@@H]1CN([C@H](C)CO)C(=O)c2cccc(NC(=O)c3ccncc3)c2O[C@@H]1CN(C)Cc1ccc(C(F)(F)F)cc1 | -24.5% (inactive)
C[C@@H]1CN([C@@H](C)CO)C(=O)c2cccc(NC(=O)c3ccncc3)c2O[C@@H]1CN(C)Cc1ccc(-c2ccccc2)cc1 | 19.3% (inactive)
C[C@H]1CN([C@@H](C)CO)C(=O)c2cccc(NC(=O)c3ccncc3)c2O[C@@H]1CN(C)Cc1ccc2c(c1)OCO2 | -3.23% (inactive)

Structure (SMILES) | activity change, negative = cytotoxicity
C[C@H](CO)N1C[C@H](C)[C@H](CN(C)CC2CCCCC2)Oc2c(NC(=O)c3ccncc3)cccc2C1=O | 2.09% (inactive)
C[C@@H]1CN([C@H](C)CO)C(=O)c2cccc(NC(=O)c3nc4ccccc4s3)c2O[C@@H]1CN(C)S(=O)(=O)c1ccc(Cl)cc1 | 11.5% (inactive)
Cc1ccc(S(=O)(=O)Nc2ccc3c(c2)CC(=O)N([C@@H](C)CO)C[C@H](C)[C@H](CN(C)Cc2ccccc2)O3)cc1 | -4.35% (inactive)
Cc1ccc(S(=O)(=O)Nc2ccc3c(c2)CC(=O)N([C@H](C)CO)C[C@H](C)[C@@H](CN(C)Cc2ccccc2)O3)cc1 | -0.645% (inactive)
Cc1noc(C)c1NC(=O)Nc1cccc2c1O[C@@H](CN(C)S(C)(=O)=O)[C@H](C)CN([C@@H](C)CO)C2=O | -28% (inactive)
Cc1ccc(S(=O)(=O)N(C)C[C@@H]2Oc3c(NC(=O)c4nc5ccccc5s4)cccc3C(=O)N([C@@H](C)CO)C[C@H]2C)cc1 | -13.6% (inactive)
C[C@H]1CN([C@@H](C)CO)C(=O)c2cccc(NC(=O)c3ccncc3)c2O[C@@H]1CN(C)Cc1ccc(-c2ccccc2)cc1 | -14.8% (inactive)
C[C@@H]1CN([C@@H](C)CO)C(=O)c2cccc(NC(=O)c3nc4ccccc4s3)c2O[C@H]1CN(C)S(=O)(=O)c1ccc(Cl)cc1 | -6.73% (inactive)
C[C@H]1CN([C@@H](C)CO)C(=O)c2cccc(NC(=O)c3nc4ccccc4s3)c2O[C@@H]1CN(C)S(=O)(=O)c1ccc(Cl)cc1 | -9.43% (inactive)
C[C@@H]1CN([C@@H](C)CO)C(=O)c2cccc(NC(=O)Nc3ccc(C(F)(F)F)cc3)c2O[C@H]1CN(C)Cc1ccc(Cl)c(Cl)c1 | -34.5% (inactive)
Cc1noc(C)c1NC(=O)Nc1cccc2c1O[C@@H](CN(C)S(C)(=O)=O)[C@H](C)CN([C@H](C)CO)C2=O | -6.79% (inactive)
Cc1noc(C)c1NC(=O)Nc1cccc2c1O[C@@H](CN(C)S(C)(=O)=O)[C@@H](C)CN([C@@H](C)CO)C2=O | -35% (inactive)
C[C@H](CO)N1C[C@H](C)[C@@H](CN(C)Cc2ccc(-c3ccccc3)cc2)Oc2c(NC(=O)c3ccncc3)cccc2C1=O | -29.7% (inactive)
C[C@@H]1CN([C@H](C)CO)C(=O)Cc2cc(NS(=O)(=O)c3ccc(F)cc3)ccc2O[C@H]1CN(C)Cc1ccc(Cl)c(Cl)c1 | -17.9% (inactive)
COc1ccc(CN(C)C[C@@H]2Oc3c(NC(=O)Nc4ccc(C(F)(F)F)cc4)cccc3C(=O)N([C@@H](C)CO)C[C@H]2C)cc1 | -16.2% (inactive)
C[C@H](CO)N1C[C@H](C)[C@H](CN(C)Cc2ccc3c(c2)OCO3)Oc2c(NC(=O)c3ccncc3)cccc2C1=O | -7.03% (inactive)
C[C@@H]1CN([C@@H](C)CO)C(=O)c2cccc(NC(=O)c3nc4ccccc4s3)c2O[C@H]1CN(C)Cc1ccc2c(c1)OCO2 | -20.2% (inactive)
Cc1ccc(S(=O)(=O)N(C)C[C@@H]2Oc3ccc(NS(=O)(=O)c4ccc(Cl)cc4)cc3CC(=O)N([C@@H](C)CO)C[C@H]2C)cc1 | -61.2% (inactive)
C[C@H]1CN([C@@H](C)CO)C(=O)Cc2cc(NS(=O)(=O)c3ccc(Cl)cc3)ccc2O[C@H]1CN(C)S(=O)(=O)c1ccc(Cl)cc1 | -12.7% (inactive)
COc1ccc(CN(C)C[C@@H]2Oc3c(NC(=O)Nc4ccc(C(F)(F)F)cc4)cccc3C(=O)N([C@@H](C)CO)C[C@@H]2C)cc1 | -25.6% (inactive)
C[C@@H]1CN([C@H](C)CO)C(=O)c2cccc(NC(=O)c3nc4ccccc4s3)c2O[C@H]1CN(C)Cc1ccc2c(c1)OCO2 | -10.9% (inactive)
C[C@@H]1CN([C@H](C)CO)C(=O)c2cccc(NC(=O)c3ccncc3)c2O[C@@H]1CN(C)Cc1ccccc1 | 4.84% (inactive)
C[C@@H]1CN([C@@H](C)CO)C(=O)c2cccc(NC(=O)NC3CCCCC3)c2O[C@@H]1CN(C)S(=O)(=O)c1ccc(F)cc1 | 21.4% (inactive)

Same assay, conditions: NIH/3T3 viability, ATP luminescence (CellTiter-Glo), 90 h; at 21 µM (top of the series)

Structure (SMILES) | activity change, negative = cytotoxicity
Cc1ccc(S(=O)(=O)N(C)C[C@H]2Oc3ccc(NS(=O)(=O)c4ccc(Cl)cc4)cc3CC(=O)N([C@@H](C)CO)C[C@H]2C)cc1 | -13.4% (inactive)
C[C@H](CO)N1C[C@H](C)[C@H](CN(C)S(=O)(=O)c2ccc(Cl)cc2)Oc2ccc(NS(=O)(=O)c3ccccc3)cc2CC1=O | -11.3% (inactive)
C[C@@H]1CN([C@@H](C)CO)C(=O)c2cccc(NC(=O)c3ccncc3)c2O[C@H]1CN(C)Cc1ccccc1 | 6.47% (inactive)
Cc1ccc(S(=O)(=O)N(C)C[C@H]2Oc3ccc(NS(=O)(=O)c4ccc(Cl)cc4)cc3CC(=O)N([C@@H](C)CO)C[C@@H]2C)cc1 | -2.46% (inactive)
Cc1ccc(S(=O)(=O)N(C)C[C@@H]2Oc3ccc(NS(=O)(=O)c4ccc(Cl)cc4)cc3CC(=O)N([C@H](C)CO)C[C@H]2C)cc1 | -11.6% (inactive)
C[C@H]1CN([C@@H](C)CO)C(=O)c2cccc(NC(=O)c3ccncc3)c2O[C@@H]1CN(C)Cc1ccccc1 | 10.2% (inactive)
Cc1ccc(S(=O)(=O)N(C)C[C@H]2Oc3ccc(NS(=O)(=O)c4ccccc4)cc3CC(=O)N([C@@H](C)CO)C[C@H]2C)cc1 | -30.2% (inactive)
Cc1ccc(S(=O)(=O)Nc2ccc3c(c2)CC(=O)N([C@@H](C)CO)C[C@@H](C)[C@@H](CN(C)Cc2ccc(Cl)c(Cl)c2)O3)cc1 | -67.6% (inactive)
